Laboratory results as given in article PMC12539213, “Molecular targeting of the deubiquitinase USP14 to circumvent cisplatin resistance in ovarian carcinoma and identification of novel inhibitors” (Cancer Drug Resistance, 2025).

What was measured:
[1] = biological target: T1, USP14 (ubiquitin-specific protease 14) (Homo sapiens, UniProt P54578); test: Ub-Rho110-G hydrolysis assay, positive control at […] ([…] inhibition) and […] ([…]); also HA-Ub-VS labeling in IGROV-1/Pt1 cells; type: biochemical
T1 construct: USP14 (6His-tagged), 64-0018-050, Ubiquigent; with Ub-VS-treated human 26S proteasome
T1 sequence (P54578 whole entry): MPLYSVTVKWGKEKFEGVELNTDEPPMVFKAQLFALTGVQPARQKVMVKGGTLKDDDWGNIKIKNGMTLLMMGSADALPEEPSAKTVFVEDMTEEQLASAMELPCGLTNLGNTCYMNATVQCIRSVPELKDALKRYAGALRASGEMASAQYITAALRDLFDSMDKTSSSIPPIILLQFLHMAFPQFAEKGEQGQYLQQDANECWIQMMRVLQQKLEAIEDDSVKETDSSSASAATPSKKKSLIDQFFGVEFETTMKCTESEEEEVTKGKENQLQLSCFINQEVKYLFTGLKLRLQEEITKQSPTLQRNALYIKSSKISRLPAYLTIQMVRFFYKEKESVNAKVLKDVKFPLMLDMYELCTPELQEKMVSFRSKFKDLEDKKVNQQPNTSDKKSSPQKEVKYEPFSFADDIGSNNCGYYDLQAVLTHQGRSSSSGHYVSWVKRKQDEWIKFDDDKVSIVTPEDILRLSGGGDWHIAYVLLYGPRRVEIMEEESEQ

[2] = biological target: T1, USP14 (ubiquitin-specific protease 14); test: Ub-Rho110-G hydrolysis assay, recombinant USP14 with Ub-VS-treated […] proteasome, dose-response; type: biochemical

Cc1cc(C(=O)CN2CCCCC2)c(C)n1-c1ccc(Cl)cc1 [IU1-47]
IC50 [1]: ~ 200 nM

CC1=NN(c2cccc(NC(=O)c3ccccc3Cn3ccnc3)c2)C(=O)C1 [ARN12502]
IC50 [2]: 18.4 ± 2.2 µM
